Key:
[1] = Gelbart and Thomas 1978; Schonfeld and Repke 1988; cited from earlier work
Na^+,K+ -ATPase [2] = details: Gelbart and Thomas 1978; Schonfeld and Repke 1988; Thomas et al. 1974; Boutagy et al. 1973; cited from earlier work
[3] = tested on: spontaneous hypertensive rats (MHS); test: effect of 5 week-treatment on the development of hypertension in rats (SBP and HR, tail cuff method); type: in vivo, rat; details: 20 mg/Kg/os daily in Methocel 0.5% w/v, 5 weeks, 7 rats; for SBP: controls 172 +/- 3.5; for HR: controls 380 +/- 9.0
Description: Systolic blood pressure (SBP) and heart rate (HR) were measured, by the tail cuff method, in young prehypertensive male rats (MHS or SHR) strains before the development of hypertension (4 weeks of age) for recording the basal values of SBP. Groups of 7 rats were formed and subdivided in control and treated groups. The compound, suspended in Methocel 0.5 % (w/v), was orally given daily for at least 5 weeks to the treated groups. The control group received only Methocel.
SBP and HR were measured weekly 6 and 24 hrs after treatment. After 5 weeks of treatment, when hypertension was fully developed in the control group (9 weeks of age), washout was started for at least one week, to verify whether the treatment mantained blood pressure low or reestablished the basal values. […] (Takeda K. et al., Japan J. Pharmacol, 1979, 29,171; Takeda K. et al. Japan J. Pharmacol., 1982, 32, 283; Richer C. et al. Eur. J. Pharmacol, 1978, 47,393).

Na^+,K+ -ATPase [4] = biological target: T1, Na^+,K+ -ATPase (Canis lupus familiaris, UniProt P50997); test: inhibition of the activity of the purified Na^+,K+ -ATPase measured as % of hydrolysis of ^32 P-ATP; type: biochemical
T1 construct: Na^+,K+ -ATPase receptor purified according to Jorghensen; from tissue
Text: (§1) To test the affinity for the receptor site of the Na^+,K+ -ATPase and the agonist or antagonist activity on the enzyme, the following tests were used:
b) inhibition of the activity of the purified Na^+,K+ -ATPase measured as % of hydrolysis of ^32 P-ATP in presence and in absence of the tested compound (Mall F. et al., Biochem. Pharmacol, 1984, 33, 47)

Na^+,K+ -ATPase [5] = biological target: T1, Na^+,K+ -ATPase; test: displacement of the specific ^3 H-ouabain binding from the Na^+,K+ -ATPase receptor
Text: as §1
a) displacement of the specific ^3 H-ouabain binding from the Na^+,K+ -ATPase receptor purified according to Jorghensen (Jorghensen P., BBA, 1974, 356, 36) and Erdmann (Erdmann E. et al., Arzneim. Forsh., 1984, 34, 1314);

[6] = purified Na^+,K+ -ATPase, hydrolysis of ^32 P-ATP
[7] = purified Na^+,K+ -ATPase receptor, read-out: Binding ^3 H-Ouab. Displacement log IC50 (converted)
[8] = purified Na^+,K+ -ATPase, hydrolysis of ^32 P-ATP, read-out: Inhibitory Activity log IC50 (converted)

SMILES | IC50 (Na^+,K+ -ATPase [5]) | IC50 (Na^+,K+ -ATPase [4]) | IC50 (Na^+,K+ -ATPase [5]; [7]) | IC50 (Na^+,K+ -ATPase [4]; [8]) | further results
C[C@]12CC[C@H](O)C[C@H]1CC[C@@H]1[C@@H]2CC[C@]2(C)C(C=NNC(=N)N)CC[C@]12O (stereo partly drawn) [17-Guanidinoiminomethyl-5β-androstane-3β,14β-diol] | – | – | – | – | positive inotropic activity [1]: weak positive inotropic agents; inhibition of Na^+,K+ -ATPase (Na^+,K+ -ATPase [2]): weak inhibitors of Na^+,K+ -ATPase
C[C@]12CC[C@H](O)C[C@H]1CC[C@@H]1[C@@H]2CC[C@]2(C)C(=NNC(=N)N)CC[C@]12O [17-guanidinoimino-5β-androstane-3β,14β-diol] | – | – | – | – | positive inotropic activity [1]: weak positive inotropic agents; inhibition of Na^+,K+ -ATPase (Na^+,K+ -ATPase [2]): weak inhibitors of Na^+,K+ -ATPase
C[C@]12CC[C@H](O)C[C@H]1CC[C@@H]1[C@@H]2CC[C@]2(C)[C@@H](/C=N/NC3=NCCN3)CC[C@]12O [Comp. I-aa, (E)-17β-(2-Imidazolin-2-yl)hydrazonomethyl-5β-androstane-3β,14β-diol] | 0.2 µM | – | – | – | SBP [3]: 149 +/- 3.7 mm Hg; HR [3]: 370 +/- 11.2 beats/min.; Inhibitory Activity log IC50 (Na^+,K+ -ATPase [4]; [6]): 5.2
CN1CCN=C1N/N=C/[C@H]1CC[C@]2(O)[C@@H]3CC[C@@H]4C[C@@H](O)CC[C@]4(C)[C@H]3CC[C@]12C [Comp. I-ac, (E)-17β-(1-Methyl-2-imidazolin-2-yl)hydrazono-methyl-5β-androstane-3β,14β-diol] | 1 µM | 12.6 µM | – | – | –
C[C@]12CC[C@H](O)C[C@H]1CC[C@@H]1[C@@H]2CC[C@]2(C)[C@@H](/C=N/NC3=NCCCN3)CC[C@]12O [Comp. I-ae, (E)-17β-(1,4,5,6-Tetrahydro-2-pyrimidinyl)hydrazonomethyl-5β-androstane-3β,14β-diol] | 0.251 µM | – | – | – | Inhibitory Activity log IC50 (Na^+,K+ -ATPase [4]; [6]): 5.3
C[C@]12CC[C@H](O)C[C@H]1CC[C@@H]1[C@@H]2CC[C@]2(C)[C@@H](/C=N/NC(=N)NC(=N)N)CC[C@]12O [Comp. I-af, (E)-17β-(3-Amidino)guanidinoiminomethyl-5β-androstane-3β,14β-diol] | 0.2 µM | 7.94 µM | – | – | –
CN(C)CCNC(=N)N/N=C/[C@H]1CC[C@]2(O)[C@@H]3CC[C@@H]4C[C@@H](O)CC[C@]4(C)[C@H]3CC[C@]12C [Comp. I-ag, (E)-17β-(3-(2-Dimethylaminoethyl)guanidinoimino)methyl-5β-androstane-3β,14β-diol] | – | 25.1 µM | 1 µM | – | SBP [3]: 154 +/- 4.8 mm Hg; HR [3]: 390 +/- 5.9 beats/min.
C[C@]12CC[C@H](O)C[C@H]1CC[C@@H]1[C@@H]2CC[C@]2(C)[C@@H](/C=N/N=C(\N)Nc3ccccc3)CC[C@]12O [Comp. I-ah, (E)-17β-(3-Phenylguanidino)iminomethyl-5β-androstane-3β,14β-diol] | – | 100 µM | 6.31 µM | – | –
CSC(=N)N/N=C/[C@H]1CC[C@]2(O)[C@@H]3CC[C@@H]4C[C@@H](O)CC[C@]4(C)[C@H]3CC[C@]12C [Comp. I-ak, (E)-17β-(3-Methylisothiosemicarbazono)methyl-5β-androstane-3β,14-diol] | 2 µM | 31.6 µM | – | – | –
C[C@]12CC[C@H](OCCCN)C[C@H]1CC[C@@H]1[C@@H]2CC[C@]2(C)[C@@H](/C=N/NC(=N)N)CC[C@]12O [Comp. I-al, (E)-3β-(3-Aminopropoxy)-17β-guanidinoiminomethyl-5β-androstane-14β-ol] | 0.0398 µM | – | – | 0.794 µM | SBP [3]: 153 +/- 6.3 mm Hg; HR [3]: 380 +/- 10.0 beats/min.
C[C@]12CC[C@H](OCCN3CCCC3)C[C@H]1CC[C@@H]1[C@@H]2CC[C@]2(C)[C@@H](/C=N/NC(=N)N)CC[C@]12O [Comp. I-an, (E)-3β-(2-(1-pyrrolidinyl)ethoxy)-17β-guanidinoiminomethyl-5β-androstane-14β-ol] | – | – | 0.0398 µM | 0.501 µM | SBP [3]: 150 +/- 5.1 mm Hg; HR [3]: 384 +/- 7.9 beats/min.
C[C@]12CC[C@H](OCCCN)C[C@H]1CC[C@@H]1[C@@H]2CC[C@]2(C)[C@@H](/C=N/NC(N)=O)CC[C@]12O [Comp. I-aq, (E)-3β-(3-Aminopropoxy)-17β-semicarbazonomethyl-5β-androstane-14β-ol] | 1.26 µM | – | – | 39.8 µM | –
C[C@]12CC[C@H](OCCN3CCCC3)C[C@H]1CC[C@@H]1[C@@H]2CC[C@]2(C)[C@@H](/C=N/NC(N)=O)CC[C@]12O [Comp. I-as, (E)-3β-(2-(1-Pyrrolidinyl)ethoxy)-17β-semicarbazonomethyl-5β-androstane-14β-ol] | 1.58 µM | – | – | 39.8 µM | –
C[C@]12CC[C@H](OCCCN)C[C@H]1CC[C@@H]1[C@@H]2CC[C@]2(C)[C@@H](/C=N/NC3=NCCN3)CC[C@]12O [Comp. I-au, (E)-3β-(3-Aminopropoxy)-17β(2-imidazolin-2-yl)hydrazonomethyl-5β-androstane-14β-ol] | 0.1 µM | 3.98 µM | – | – | –
C[C@]12CC[C@H](OCCN3CCCC3)C[C@H]1CC[C@@H]1[C@@H]2CC[C@]2(C)[C@@H](/C=N/NC3=NCCN3)CC[C@]12O [Comp. I-aw, (E)-3β-(2-(1-Pyrrolidinyl)ethoxy)-17β-(2-imidazolin-2-yl)hydrazonomethyl-5β-androstane-14β-ol] | – | – | 0.1 µM | 0.398 µM | SBP [3]: 151 +/- 5.2 mm Hg; HR [3]: 388 +/- 9.0 beats/min.
C[C@]12CCC(=NNC(=N)N)C[C@H]1CC[C@@H]1[C@@H]2CC[C@]2(C)[C@@H](/C=N/NC(=N)N)CC[C@]12O [Comp. I-bi, 3-[(ZE)-Guanidinoimino]-17β-[(E)-guanidinoiminomethyl]-5β-androstane-14β-ol] | 0.126 µM | 5.01 µM | – | – | –
C/C(=N\N=C(N)N)[C@H]1CC[C@]2(O)[C@@H]3CC[C@@H]4C[C@@H](O)CC[C@]4(C)[C@H]3CC[C@]12C [Comp. I-bk, (E)-20-Guanidinoimino-5β-pregnane-3β,14β-diol] | 0.251 µM | 5.01 µM | – | – | –
C[C@]12CC[C@H](O)C[C@H]1CC[C@@H]1[C@@H]2CC[C@]2(C)[C@@](O)(/C=N/NC(=N)N)CC[C@]12O [Comp. I-bl, (E)-17β-Guanidinoiminomethyl-5β-androstane-3β,14β,17α-triol] | – | – | 1.58 µM | 39.8 µM | –
C[C@]12CC[C@H](O)C[C@H]1CC[C@@H]1[C@@H]2CC[C@]2(C)[C@@](O)(/C=N/NC3=NCCN3)CC[C@]12O [Comp. I-bn, (E)-17β-(2-Imidazolin-2-yl)hydrazonomethyl-5β-androstane-3β,14β,17α-triol] | 3.98 µM | 12.6 µM | – | – | –
C[C@]12CC[C@H](O)C[C@H]1CC[C@@H]1[C@@H]2CC[C@]2(C)/C(=N/NC3=NCCN3)CC[C@]12O [Comp. I-bo, (E)-17-(2-Imidazolin-2-yl)hydrazono-5β-androstane-3β,14β-diol] | – | – | 2 µM | 39.8 µM | –
